# Results taken from ChEMBL document CHEMBL3822390, “Synthesis, characterization and anti-cancer activity of a peptide nucleolipid bioconjugate” (2016).
# Key:
# Assay type in all cases: functional
# [1] = Cytotoxicity against human HL-60(TB) cells assessed as cell growth at 10 uM after 48 hrs by SRB assay; conditions: HL-60, 48 h, read-out: Activity
# A549 [2] = assay: Cytotoxicity against human A549 cells assessed as cell growth at 10 uM after 48 hrs by SRB assay; conditions: A549, 48 h, read-out: Activity
# NCI-H460 [3] = assay: Cytotoxicity against human NCI-H460 cells assessed as cell growth at 10 uM after 48 hrs by SRB assay; conditions: NCI-H460, 48 h, read-out: Activity
# [4] = Cytotoxicity against human COLO205 cells assessed as cell growth at 10 uM after 48 hrs by SRB assay; conditions: COLO 205, 48 h, read-out: Activity
# [5] = Cytotoxicity against human HCC2998 cells assessed as cell growth at 10 uM after 48 hrs by SRB assay; conditions: HCC 2998, 48 h, read-out: Activity
# HT-29 = assay: Cytotoxicity against human HT-29 cells assessed as cell growth at 10 uM after 48 hrs by SRB assay; conditions: HT-29, 48 h, read-out: Activity
# [6] = Cytotoxicity against human SW620 cells assessed as cell growth at 10 uM after 48 hrs by SRB assay; conditions: SW-620, 48 h, read-out: Activity
# [7] = Cytotoxicity against human SF295 cells assessed as cell growth at 10 uM after 48 hrs by SRB assay; conditions: SF-295, 48 h, read-out: Activity
# [8] = Cytotoxicity against human LOXIMVI cells assessed as cell growth at 10 uM after 48 hrs by SRB assay; conditions: LOX IMVI, read-out: Activity
# [9] = Cytotoxicity against human UACC62 cells assessed as cell growth at 10 uM after 48 hrs by SRB assay; conditions: UACC-62, 48 h, read-out: Activity
# [10] = Cytotoxicity against human IGROV1 cells assessed as cell growth at 10 uM after 48 hrs by SRB assay; conditions: IGROV-1, 48 h, read-out: Activity
# ACHN [11] = assay: Cytotoxicity against human ACHN cells assessed as cell growth at 10 uM after 48 hrs by SRB assay; conditions: read-out: Activity
# [12] = Cytotoxicity against human Caki1 cells assessed as cell growth at 10 uM after 48 hrs by SRB assay; conditions: CAKI-1, 48 h, read-out: Activity
# [13] = Cytotoxicity against human PC3 cells assessed as cell growth at 10 uM after 48 hrs by SRB assay; conditions: PC-3, 48 h, read-out: Activity
# [14] = Cytotoxicity against human HCC2998 cells assessed as cell growth at 7.25 uM after 48 hrs by SRB assay; conditions: HCC 2998, 48 h, read-out: Activity
# [15] = Cytotoxicity against human HCT116 cells assessed as cell growth at 7.25 uM after 48 hrs by SRB assay; conditions: HCT-116, 48 h, read-out: Activity
# [16] = Cytotoxicity against human SF268 cells assessed as cell growth at 7.25 uM after 48 hrs by SRB assay; conditions: SF-268, 48 h, read-out: Activity
# [17] = Cytotoxicity against human SNB75 cells assessed as cell growth at 7.25 uM after 48 hrs by SRB assay; conditions: SNB-75, 48 h, read-out: Activity
# [18] = Cytotoxicity against human OVCAR5 cells assessed as cell growth at 7.25 uM after 48 hrs by SRB assay; conditions: OVCAR-5, 48 h, read-out: Activity
# ACHN [19] = assay: Cytotoxicity against human ACHN cells assessed as cell growth at 7.25 uM after 48 hrs by SRB assay; conditions: read-out: Activity
# [20] = Cytotoxicity against human TK10 cells assessed as cell growth at 7.25 uM after 48 hrs by SRB assay; conditions: TK-10, 48 h, read-out: Activity
# [21] = Cytotoxicity against human UO31 cells assessed as cell growth at 7.25 uM after 48 hrs by SRB assay; conditions: UO-31, 48 h, read-out: Activity
# [22] = Cytotoxicity against human BT549 cells assessed as cell growth at 7.25 uM after 48 hrs by SRB assay; conditions: BT-549, 48 h, read-out: Activity
# A549 [23] = assay: Cytotoxicity against human A549 cells assessed as cell growth at 7.25 uM after 48 hrs by SRB assay; conditions: A549, 48 h, read-out: Activity
# NCI-H226 = assay: Cytotoxicity against human NCI-H226 cells assessed as cell growth at 7.25 uM after 48 hrs by SRB assay; conditions: NCI-H226, 48 h, read-out: Activity
# NCI-H460 [24] = assay: Cytotoxicity against human NCI-H460 cells assessed as cell growth at 7.25 uM after 48 hrs by SRB assay; conditions: NCI-H460, 48 h, read-out: Activity
# Malme-3M = assay: Cytotoxicity against human MALME-3M cells assessed as cell growth at 2.13 uM after 48 hrs by SRB assay; conditions: read-out: Activity
# [25] = Cytotoxicity against human OVCAR4 cells assessed as cell growth at 2.13 uM after 48 hrs by SRB assay; conditions: OVCAR-4, 48 h, read-out: Activity
# [26] = Cytotoxicity against human OVCAR8 cells assessed as cell growth at 2.13 uM after 48 hrs by SRB assay; conditions: OVCAR-8, 48 h, read-out: Activity
# [27] = Cytotoxicity against human SKOV3 cells assessed as cell growth at 2.13 uM after 48 hrs by SRB assay; conditions: SK-OV-3, 48 h, read-out: Activity
# A498 = assay: Cytotoxicity against human A498 cells assessed as cell growth at 2.13 uM after 48 hrs by SRB assay; conditions: A498, 48 h, read-out: Activity
# ACHN [28] = assay: Cytotoxicity against human ACHN cells assessed as cell growth at 2.13 uM after 48 hrs by SRB assay; conditions: read-out: Activity
# [29] = Cytotoxicity against human Caki1 cells assessed as cell growth at 2.13 uM after 48 hrs by SRB assay; conditions: CAKI-1, 48 h, read-out: Activity
# SN12C = assay: Cytotoxicity against human SN12C cells assessed as cell growth at 2.13 uM after 48 hrs by SRB assay; conditions: read-out: Activity
# [30] = Cytotoxicity against human TK10 cells assessed as cell growth at 2.13 uM after 48 hrs by SRB assay; conditions: TK-10, 48 h, read-out: Activity
# [31] = Cytotoxicity against human DU145 cells assessed as cell growth at 2.13 uM after 48 hrs by SRB assay; conditions: DU-145, 48 h, read-out: Activity
# A549 [32] = assay: Cytotoxicity against human A549 cells assessed as cell mortality at 2.13 uM after 48 hrs by SRB assay; conditions: A549, 48 h
# [33] = Cytotoxicity against human HL-60(TB) cells assessed as cell growth at 2.13 uM after 48 hrs by SRB assay; conditions: HL-60, 48 h, read-out: Activity
# K562 = assay: Cytotoxicity against human K562 cells assessed as cell growth at 2.13 uM after 48 hrs by SRB assay; conditions: K562, 48 h, read-out: Activity
# A549 [34] = assay: Cytotoxicity against human A549 cells assessed as cell growth at 2.13 uM after 48 hrs by SRB assay; conditions: A549, 48 h, read-out: Activity
# NCI-H522 = assay: Cytotoxicity against human NCI-H522 cells assessed as cell growth at 2.13 uM after 48 hrs by SRB assay; conditions: NCI-H522, 48 h, read-out: Activity
compound,measurement,setting,value
CC(C)C[C@H](NC(=O)[C@H](CCCCN)NC(=O)[C@H](C)NC(=O)[C@H](CC(C)C)NC(=O)[C@H](CCCCN)NC(=O)[C@H](CCCCN)NC(=O)[C@H](C)NC(=O)[C@H](CC(C)C)NC(=O)[C@H](CCCCN)NC(=O)[C@H](C)NC(=O)[C@H](CC(C)C)NC(=O)[C@H](CCCCN)NC(=O)[C@@H](N)CC(=O)O)C(=O)N[C@@H](C)C(=O)N[C@@H](CCCCN)C(=O)N[C@@H](C)C(=O)N[C@@H](CCCCN)C(N)=O,growth at 10 µM,[1],99.5%
same,growth at 10 µM,A549 [2],81%
same,growth at 10 µM,NCI-H460 [3],117%
same,growth at 10 µM,[4],114%
same,growth at 10 µM,[5],100%
same,growth at 10 µM,HT-29,94.8%
same,growth at 10 µM,[6],106%
same,growth at 10 µM,[7],103%
same,growth at 10 µM,[8],97.2%
same,growth at 10 µM,[9],104%
same,growth at 10 µM,[10],107%
same,growth at 10 µM,ACHN [11],107%
same,growth at 10 µM,[12],99.4%
same,growth at 10 µM,[13],94.7%
CCCCCCCCCCCCCCCC(=O)NCCCC[C@H](NC(=O)[C@H](C)NC(=O)[C@H](CCCCN)NC(=O)[C@H](C)NC(=O)[C@H](CC(C)C)NC(=O)[C@H](CCCCN)NC(=O)[C@H](C)NC(=O)[C@H](CC(C)C)NC(=O)[C@H](CCCCN)NC(=O)[C@H](CCCCN)NC(=O)[C@H](C)NC(=O)[C@H](CC(C)C)NC(=O)[C@H](CCCCN)NC(=O)[C@H](C)NC(=O)[C@H](CC(C)C)NC(=O)[C@H](CCCCN)NC(=O)[C@@H](N)CC(=O)O)C(N)=O,growth at 7.25 µM,[14],101%
same,growth at 7.25 µM,[15],92.3%
same,growth at 7.25 µM,[16],105%
same,growth at 7.25 µM,[17],93.6%
same,growth at 7.25 µM,[18],105%
same,growth at 7.25 µM,ACHN [19],99.3%
same,growth at 7.25 µM,[20],92.1%
same,growth at 7.25 µM,[21],87.3%
same,growth at 7.25 µM,[22],104%
same,growth at 7.25 µM,A549 [23],67.6%
same,growth at 7.25 µM,NCI-H226,99.5%
same,growth at 7.25 µM,NCI-H460 [24],107%
CCCCCCCCCCCCCCCCNCCO[C@H]1C[C@H](n2cc(C)c(=O)[nH]c2=O)O[C@@H]1C(=O)NCCCC[C@H](NC(=O)[C@H](C)NC(=O)[C@H](CCCCN)NC(=O)[C@H](C)NC(=O)[C@H](CC(C)C)NC(=O)[C@H](CCCCN)NC(=O)[C@H](C)NC(=O)[C@H](CC(C)C)NC(=O)[C@H](CCCCN)NC(=O)[C@H](CCCCN)NC(=O)[C@H](C)NC(=O)[C@H](CC(C)C)NC(=O)[C@H](CCCCN)NC(=O)[C@H](C)NC(=O)[C@H](CC(C)C)NC(=O)[C@H](CCCCN)NC(=O)[C@@H](N)CC(=O)O)C(N)=O,growth at 2.13 µM,Malme-3M,104%
same,growth at 2.13 µM,[25],112%
same,growth at 2.13 µM,[26],96.8%
same,growth at 2.13 µM,[27],98.4%
same,growth at 2.13 µM,A498,109%
same,growth at 2.13 µM,ACHN [28],106%
same,growth at 2.13 µM,[29],96.1%
same,growth at 2.13 µM,SN12C,103%
same,growth at 2.13 µM,[30],95.9%
same,growth at 2.13 µM,[31],109%
same,mortality at 2.13 µM,A549 [32],31%
same,growth at 2.13 µM,[33],93.8%
same,growth at 2.13 µM,K562,106%
same,growth at 2.13 µM,A549 [34],68.7%
same,growth at 2.13 µM,NCI-H522,88.8%
